One block for each compound: values may come before it. The source made the active and inactive calls. No cut-off for these calls is given here.
How the values were obtained:
[1] = target: T1, Histone-lysine N-methyltransferase SMYD3 (Homo sapiens, UniProt Q9H7B4); test: (§1) Inhibition of GST-tagged SMYD3 (unknown origin) using biotinylated MAP3K2 peptide as substrate incubated for 1 hrs by TR-FRET based assay
T1 sequence (Q9H7B4 whole entry): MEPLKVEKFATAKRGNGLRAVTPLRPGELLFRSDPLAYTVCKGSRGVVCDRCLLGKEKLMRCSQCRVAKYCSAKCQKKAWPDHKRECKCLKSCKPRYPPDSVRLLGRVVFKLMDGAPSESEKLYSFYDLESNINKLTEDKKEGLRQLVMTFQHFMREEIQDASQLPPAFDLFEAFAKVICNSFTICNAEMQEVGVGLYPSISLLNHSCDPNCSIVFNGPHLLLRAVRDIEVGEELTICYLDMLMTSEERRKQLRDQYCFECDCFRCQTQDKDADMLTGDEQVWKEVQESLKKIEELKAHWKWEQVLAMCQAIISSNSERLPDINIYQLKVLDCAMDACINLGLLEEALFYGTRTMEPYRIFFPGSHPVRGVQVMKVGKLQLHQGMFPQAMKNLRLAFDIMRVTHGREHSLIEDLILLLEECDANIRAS

[2] = test system: HGC-27; test: Antiproliferative activity against human HGC-27 cells assessed as inhibition of cell proliferation by MTT assay; assay type: functional, cell-based
[3] = test system: BGC-823; test: Antiproliferative activity against human BGC-823 cells assessed as inhibition of cell proliferation by MTT assay; assay type: functional, cell-based
[4] = target: T2, Histone-lysine N-methyltransferase SMYD3 (Homo sapiens) (UniProt Q9H7B4); test: Inhibition of SMYD3 in human BGC-823 cells assessed as suppression of H3K4 methylation level at 1 uM by Western blot analysis; assay type: cell-based
T2 sequence (whole entry): T1 sequence (Q9H7B4 whole entry)

[5] = test system: BGC-823; test: Effect on total H3 methylation level in human BGC-823 cells at 1 uM by Western blot analysis; assay type: functional, cell-based
[6] = test system: BGC-823; test: Effect on total H3 expression level in human BGC-823 cells at 1 uM by Western blot analysis; assay type: functional, cell-based
[7] = target: N-lysine methyltransferase SMYD2 (Homo sapiens) (UniProt Q9NRG4); test: Inhibition of SMYD2 (unknown origin)
Chain of N-lysine methyltransferase SMYD2 (Homo sapiens) (Q9NRG4 whole entry): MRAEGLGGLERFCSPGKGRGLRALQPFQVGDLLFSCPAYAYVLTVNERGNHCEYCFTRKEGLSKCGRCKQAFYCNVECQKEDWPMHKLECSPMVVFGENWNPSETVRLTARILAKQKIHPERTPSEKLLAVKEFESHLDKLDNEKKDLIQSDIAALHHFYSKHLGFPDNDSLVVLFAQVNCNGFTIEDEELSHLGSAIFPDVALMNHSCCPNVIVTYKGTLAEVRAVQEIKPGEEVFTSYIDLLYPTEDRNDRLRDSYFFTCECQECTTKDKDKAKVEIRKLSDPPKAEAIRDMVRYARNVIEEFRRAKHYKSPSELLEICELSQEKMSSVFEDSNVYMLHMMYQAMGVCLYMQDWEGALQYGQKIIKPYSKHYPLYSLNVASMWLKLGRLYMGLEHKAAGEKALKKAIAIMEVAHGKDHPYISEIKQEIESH

[8] = target: T3, Histone-lysine N-methyltransferase EHMT2 (Homo sapiens) (UniProt Q96KQ7); test: Inhibition of G9a (unknown origin)
T3 sequence (whole entry): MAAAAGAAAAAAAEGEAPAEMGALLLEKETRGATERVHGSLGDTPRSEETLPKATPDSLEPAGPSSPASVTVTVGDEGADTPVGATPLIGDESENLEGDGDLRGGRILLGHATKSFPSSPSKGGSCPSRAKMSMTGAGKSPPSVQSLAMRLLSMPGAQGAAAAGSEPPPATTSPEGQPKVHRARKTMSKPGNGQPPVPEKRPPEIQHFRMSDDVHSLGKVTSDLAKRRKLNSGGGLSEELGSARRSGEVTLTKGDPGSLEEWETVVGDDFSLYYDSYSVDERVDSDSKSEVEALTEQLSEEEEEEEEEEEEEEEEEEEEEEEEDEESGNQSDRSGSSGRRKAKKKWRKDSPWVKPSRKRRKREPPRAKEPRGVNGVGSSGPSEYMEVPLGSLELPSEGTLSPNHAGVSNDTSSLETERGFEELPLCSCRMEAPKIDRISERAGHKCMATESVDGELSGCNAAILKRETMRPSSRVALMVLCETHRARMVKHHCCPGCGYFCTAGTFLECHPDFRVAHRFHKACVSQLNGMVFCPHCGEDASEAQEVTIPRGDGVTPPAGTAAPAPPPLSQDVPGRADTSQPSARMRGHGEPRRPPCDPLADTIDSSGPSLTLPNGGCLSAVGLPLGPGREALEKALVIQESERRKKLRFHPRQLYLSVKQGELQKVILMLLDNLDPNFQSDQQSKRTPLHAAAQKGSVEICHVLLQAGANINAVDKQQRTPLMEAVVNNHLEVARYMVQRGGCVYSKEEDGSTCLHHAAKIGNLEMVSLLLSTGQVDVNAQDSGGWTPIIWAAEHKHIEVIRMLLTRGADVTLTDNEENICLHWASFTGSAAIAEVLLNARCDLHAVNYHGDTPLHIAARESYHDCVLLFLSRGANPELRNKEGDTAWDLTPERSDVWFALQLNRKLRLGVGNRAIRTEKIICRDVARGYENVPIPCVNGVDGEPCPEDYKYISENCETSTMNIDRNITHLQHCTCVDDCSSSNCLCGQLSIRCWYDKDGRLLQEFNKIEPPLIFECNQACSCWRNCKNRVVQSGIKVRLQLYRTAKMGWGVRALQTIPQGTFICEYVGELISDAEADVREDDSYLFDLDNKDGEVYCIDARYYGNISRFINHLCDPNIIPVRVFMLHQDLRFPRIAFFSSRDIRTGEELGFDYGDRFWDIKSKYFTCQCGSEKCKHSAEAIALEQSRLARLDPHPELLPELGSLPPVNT

[9] = target: Histone-lysine N-methyltransferase EZH2 (Homo sapiens) (UniProt Q15910); test: Inhibition of EZH2 (unknown origin)
Chain of Histone-lysine N-methyltransferase EZH2 (Homo sapiens) (Q15910 whole entry, looked up): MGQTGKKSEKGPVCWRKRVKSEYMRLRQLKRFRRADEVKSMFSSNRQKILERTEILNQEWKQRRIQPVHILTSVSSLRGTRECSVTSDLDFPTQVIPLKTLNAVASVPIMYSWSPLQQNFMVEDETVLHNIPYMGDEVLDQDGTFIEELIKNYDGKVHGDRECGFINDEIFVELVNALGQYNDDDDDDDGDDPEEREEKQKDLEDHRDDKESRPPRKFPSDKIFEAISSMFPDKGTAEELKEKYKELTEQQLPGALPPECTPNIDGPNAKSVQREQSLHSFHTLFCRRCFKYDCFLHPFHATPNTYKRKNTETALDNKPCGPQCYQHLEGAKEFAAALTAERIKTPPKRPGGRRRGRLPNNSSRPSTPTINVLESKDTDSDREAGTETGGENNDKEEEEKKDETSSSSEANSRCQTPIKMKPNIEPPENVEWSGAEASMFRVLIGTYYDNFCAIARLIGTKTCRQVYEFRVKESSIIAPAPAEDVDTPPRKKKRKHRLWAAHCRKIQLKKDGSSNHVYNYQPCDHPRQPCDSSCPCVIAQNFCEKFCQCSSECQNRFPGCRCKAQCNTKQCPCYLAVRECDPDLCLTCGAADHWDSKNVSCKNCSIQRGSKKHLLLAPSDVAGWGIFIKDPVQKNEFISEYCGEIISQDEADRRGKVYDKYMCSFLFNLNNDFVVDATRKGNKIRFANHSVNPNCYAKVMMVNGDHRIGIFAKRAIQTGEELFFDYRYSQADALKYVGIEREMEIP

[10] = target: Histone-lysine N-methyltransferase, H3 lysine-79 specific (Homo sapiens) (UniProt Q8TEK3); test: Inhibition of DOT1L (unknown origin)
Chain of Histone-lysine N-methyltransferase, H3 lysine-79 specific (Homo sapiens) (Q8TEK3 whole entry, looked up): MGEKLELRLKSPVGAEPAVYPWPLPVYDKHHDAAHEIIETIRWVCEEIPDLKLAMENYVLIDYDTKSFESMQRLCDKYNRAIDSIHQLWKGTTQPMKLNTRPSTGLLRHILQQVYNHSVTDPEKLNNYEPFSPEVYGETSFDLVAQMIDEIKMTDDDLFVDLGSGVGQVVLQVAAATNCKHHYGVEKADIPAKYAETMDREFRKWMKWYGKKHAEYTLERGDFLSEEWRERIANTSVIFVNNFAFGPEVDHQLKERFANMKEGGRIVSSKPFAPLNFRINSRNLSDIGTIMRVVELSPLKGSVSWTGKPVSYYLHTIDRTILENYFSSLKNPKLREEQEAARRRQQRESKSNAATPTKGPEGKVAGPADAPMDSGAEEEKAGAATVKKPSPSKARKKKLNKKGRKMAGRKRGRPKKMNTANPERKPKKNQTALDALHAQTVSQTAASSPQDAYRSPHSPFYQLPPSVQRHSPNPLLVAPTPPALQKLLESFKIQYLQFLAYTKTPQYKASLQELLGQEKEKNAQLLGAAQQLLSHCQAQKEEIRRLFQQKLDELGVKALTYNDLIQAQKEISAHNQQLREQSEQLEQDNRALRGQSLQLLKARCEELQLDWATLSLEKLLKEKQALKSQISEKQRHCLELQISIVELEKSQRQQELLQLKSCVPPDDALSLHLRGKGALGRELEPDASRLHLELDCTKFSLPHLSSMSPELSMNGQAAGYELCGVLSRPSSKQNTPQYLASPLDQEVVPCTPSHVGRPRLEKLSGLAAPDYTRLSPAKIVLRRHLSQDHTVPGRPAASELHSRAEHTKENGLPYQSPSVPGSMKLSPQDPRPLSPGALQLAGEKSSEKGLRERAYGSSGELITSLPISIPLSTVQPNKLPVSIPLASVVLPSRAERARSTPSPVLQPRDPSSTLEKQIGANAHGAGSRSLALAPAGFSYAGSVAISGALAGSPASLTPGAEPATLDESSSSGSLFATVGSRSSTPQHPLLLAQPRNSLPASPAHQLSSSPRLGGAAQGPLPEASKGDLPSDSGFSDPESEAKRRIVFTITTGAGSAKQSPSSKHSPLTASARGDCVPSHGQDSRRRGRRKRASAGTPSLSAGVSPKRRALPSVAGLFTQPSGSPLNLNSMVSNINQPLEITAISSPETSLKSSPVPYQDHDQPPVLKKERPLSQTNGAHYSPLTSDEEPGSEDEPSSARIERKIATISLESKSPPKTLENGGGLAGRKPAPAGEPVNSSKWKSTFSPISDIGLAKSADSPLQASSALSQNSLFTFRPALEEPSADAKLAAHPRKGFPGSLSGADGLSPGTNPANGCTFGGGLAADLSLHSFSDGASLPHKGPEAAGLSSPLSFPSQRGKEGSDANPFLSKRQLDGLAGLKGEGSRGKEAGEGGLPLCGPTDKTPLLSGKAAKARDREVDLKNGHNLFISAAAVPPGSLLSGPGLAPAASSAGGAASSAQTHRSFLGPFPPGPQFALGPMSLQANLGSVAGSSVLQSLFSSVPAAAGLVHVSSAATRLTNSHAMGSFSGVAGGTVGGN

[11] = target: T2, Histone-lysine N-methyltransferase SMYD3 (Homo sapiens); test: Inhibition of SMYD3 in human BGC-823 cells transfected with SMYD3 siRNA assessed as suppression of H3K4 methylation level by Western blot analysis; assay type: cell-based
[12] = target: T2, Histone-lysine N-methyltransferase SMYD3 (Homo sapiens); test: Inhibition of SMYD3 in human BGC-823 cells assessed as translocation of SMYD3 from nucleus to cytoplasm by DAPI staining based analysis; assay type: cell-based
[13] = test system: BGC-823; test: Induction of autophagy in human BGC-823 cells assessed as autophagic vacuoles by transmission electron microscopic analysis; assay type: functional, cell-based
[14] = test system: BGC-823; test: Antiproliferative activity against human BGC-823 cells assessed as reduction in cell viability incubated for 48 hrs in the presence of 3-MA by MTT assay; assay type: functional, cell-based
[15] = target: T2, Histone-lysine N-methyltransferase SMYD3 (Homo sapiens); test: Inhibition of SMYD3-induced Akt1 lysine methylation in human BGC-823 cells at 1 uM by Western blot analysis; assay type: cell-based
[16] = test system: BGC-823; test: Induction of autophagy in human BGC-823 cells transfected with GFP-LC3 assessed as increase in GFP-LC3 fluorescent puncta by DAPI staining based immunofluorescence analysis; assay type: functional, cell-based
[17] = test system: BGC-823; test: Induction of autophagy in human BGC-823 cells transfected with GFP-LC3 assessed as increase in GFP-LC3 fluorescent puncta in the presence of 3-MA by DAPI staining based immunofluorescence analysis; assay type: functional, cell-based
[18] = test system: BGC-823; test: Antiproliferative activity against human BGC-823 cells transfected with […] siRNA assessed as reduction in cell viability incubated for 48 hrs by MTT assay; assay type: functional, cell-based
[19] = test system: BGC-823; test: Inhibition of autophagic flux in human BGC-823 cells assessed as inhibition of autophagosome-lysosome fusion by measuring suppression of GFP-LC3 and LAMP1 intracellular co-localization incubated for 24 hrs by DAPI staining based immunofluorescence analysis; assay type: functional, cell-based
[20] = test system: BGC-823; test: Inhibition of autophagic flux in human BGC-823 cells transfected with Akt1 siRNA assessed as LC3 cleavage incubated for 24 hrs by Western blot analysis; assay type: functional, cell-based
[21] = test system: BGC-823; test: Inhibition of autophagic flux in human BGC-823 cells transfected with Akt1 siRNA assessed as p62 accumulation incubated for 24 hrs by Western blot analysis; assay type: functional, cell-based
[22] = test system: BGC-823; test: Antitumor activity against human BGC-823 cells xenografted in ip dosed Balb/c nude mouse assessed as suppression of tumor volume; assay type: functional, organism-based; conditions: dose 15-30 mg/kg
[23] = test system: BGC-823; test: Antitumor activity against human BGC-823 cells xenografted in ip dosed Balb/c nude mouse assessed as suppression of tumor weight; assay type: functional, organism-based; conditions: dose 15-30 mg/kg
[24] = test system: BGC-823; test: Antitumor activity against human BGC-823 cells xenografted in ip dosed Balb/c nude mouse assessed as suppression of tumor growth; assay type: functional, organism-based; conditions: dose 15-30 mg/kg
[25] = test system: BGC-823; test: Antiproliferative activity against human BGC-823 cells xenografted in Balb/c nude mouse assessed as induction of autophagy by measuring increase in LC3-II staining at 15 to 30 mg/kg, ip by immunohistochemistry analysis; assay type: functional, organism-based; conditions: dose 15-30 mg/kg
[26] = test system: BGC-823; test: Antiproliferative activity against human BGC-823 cells xenografted in Balb/c nude mouse assessed as induction of autophagy by measuring increase in p62 staining at 15 to 30 mg/kg, ip by immunohistochemistry analysis; assay type: functional, organism-based; conditions: dose 15-30 mg/kg
[27] = test system: Mus musculus; test: Effect on total SMYD3 protein level in Balb/c nude mouse xenografted with human BGC-823 cells at 15 to 30 mg/kg, ip by immunohistochemistry analysis; assay type: functional, organism-based; conditions: dose 15-30 mg/kg
[28] = test system: Mus musculus; test: Effect on total Akt protein level in Balb/c nude mouse xenografted with human BGC-823 cells at 15 to 30 mg/kg, ip by immunohistochemistry analysis; assay type: functional, organism-based; conditions: dose 15-30 mg/kg
[29] = Toxicity in Balb/c nude mouse xenografted with human BGC-823 cells assessed as change in body weight at 15 to 30 mg/kg, ip; assay type: organism-based; conditions: in vivo, dose 15-30 mg/kg
[30] = Toxicity in Balb/c nude mouse xenografted with human BGC-823 cells assessed as change in main organs morphology at 15 to 30 mg/kg, ip by H&E staining based analysis; assay type: organism-based; conditions: in vivo, dose 15-30 mg/kg
[31] = test system: BGC-823; test: Inhibition of autophagic flux in human BGC-823 cells transfected with Akt1 siRNA assessed as increase in mTOR incubated for 24 hrs by Western blot analysis; assay type: functional, cell-based
[32] = test system: BGC-823; test: Inhibition of autophagic flux in human BGC-823 cells assessed as LC3-II accumulation incubated for 24 hrs in the presence of 3-MA by Western blot analysis; assay type: functional, cell-based
[33] = test system: BGC-823; test: Inhibition of autophagic flux in human BGC-823 cells assessed as p62 accumulation incubated for 24 hrs in the presence of 3-MA by Western blot analysis; assay type: functional, cell-based
[34] = target: T2, Histone-lysine N-methyltransferase SMYD3 (Homo sapiens); test: as §1

IC50 [1]: 810 nM
IC50 [3]: 750 nM
inhibition [4]: Active
inhibition [7]: inactive
inhibition [8]: inactive
inhibition [9]: inactive
inhibition [10]: inactive
inhibition [11]: Active
inhibition [12]: Active
inhibition [15]: Active
Structure (SMILES): O=C1N(Cc2ccccc2)C[C@@H]2[C@@H](c3ccc(Br)cc3)[C@]3(O[C@]12O)C(=O)Nc1ccccc13
Activity [2]: Active
Activity [5]: inactive
Activity [6]: inactive
Activity [13]: Active
Activity [14]: inactive
Activity [16]: Active
Activity [17]: inactive
Activity [18]: inactive
inhibition [19]: Active
inhibition [20]: Active
inhibition [21]: Active
Activity [22]: Dose-Dependent Effect
Activity [23]: Dose-Dependent Effect
Activity [24]: Dose-Dependent Effect
Activity [25]: Active
Activity [26]: Active
Activity [27]: inactive
Activity [28]: inactive
Activity [29]: Non-Toxic
Activity [30]: Non-Toxic
inhibition [31]: Active
inhibition [32]: Active
inhibition [33]: Active

inhibition [34]: Active
Structure (SMILES): O=C1N(Cc2ccccc2)C[C@@H]2[C@@H](c3ccc(Cl)cc3)[C@]3(O[C@]12O)C(=O)Nc1ccccc13
Activity [2]: Active
Activity [3]: Active

inhibition [34]: Active
Structure (SMILES): Cc1ccc([C@@H]2[C@H]3CN(Cc4ccccc4)C(=O)[C@@]3(O)O[C@]23C(=O)Nc2ccccc23)cc1
Activity [2]: Active
Activity [3]: Active

inhibition [34]: Active
Structure (SMILES): COc1ccc([C@@H]2[C@H]3CN(Cc4ccccc4)C(=O)[C@@]3(O)O[C@]23C(=O)Nc2ccccc23)cc1OC
Activity [2]: Active
Activity [3]: Active

inhibition [34]: Active
Structure (SMILES): O=C1N(Cc2ccccc2)C[C@@H]2[C@@H](c3ccc4ccccc4c3)[C@]3(O[C@]12O)C(=O)Nc1ccccc13
Activity [2]: Active
Activity [3]: Active

inhibition [34]: Active
Structure (SMILES): O=C1N(Cc2ccccc2)C[C@@H]2[C@@H](c3cccs3)[C@]3(O[C@]12O)C(=O)Nc1ccccc13
Activity [2]: Active
Activity [3]: Active

inhibition [34]: Active
Structure (SMILES): O=C1N(Cc2ccccc2)C[C@@H]2[C@@H](c3ccc(Cl)cc3Cl)[C@]3(O[C@]12O)C(=O)Nc1ccccc13
Activity [2]: Active
Activity [3]: Active

Source: ChEMBL document CHEMBL5331080, “Discovery of tetrahydrofuranyl spirooxindole-based SMYD3 inhibitors against gastric cancer via inducing lethal autophagy” (Eur J Med Chem, 2023)
